Assay results published in patent US20230390315A1, “COMPOSITIONS AND METHODS FOR TREATING ISCHEMIC CONDITIONS” (The Regents of the University of California, priority 2020, published 2023).

Experiments:
A673 = A673 proliferation assay; assay type: cell-based, human
Method: Proliferation assays with fibroblasts were done in low-glucose DMEM containing 1% FBS, with or without 10 ng/ml bFGF, or 100 ng/ml human EGF and the assay was ended at day 3. ARPE-19 cells were gently lifted with 0.025% trypsin and plated in RtEGM media (Clonetics) containing 2% FBS, L-glutamine, human bFGF and GA-1000. Once cells were attached to plates, serum-free RtEGM media was used to maintain the cultures. For proliferation assays, 1500 human RPE cells were plated into 96-well plates in low-glucose DMEM containing 1% FBS. A673, U87MG, Calu6 and AML12 cells were grown until confluent and were then harvested and re-suspended in appropriate assay media. For proliferation assays, cells were plated at the density of 1000-2000 cells/well in low-glucose DMEM containing 5% FBS or otherwise stated. Bovine pituitary cells (pituitary folliculostellate cells) were isolated as previously described. For proliferation assays with human epidermal keratinocytes, human DMVECs and human dermal fibroblast cells, 1000 cells/well were plated in low-glucose DMEM containing 1% FBS with or without various growth factors. The assay was ended at day 3 for bovine pituitary cells and at day 4 for all the other cell types. […] Four days later, tumor cell growth was measured by the MTS assay (Promega, Madison, WI), a colorimetric assay that measures metabolic activity of viable cells. […]

α-glucosidase = α-glucosidase activity assay; assay type: biochemical, Saccharomyces cerevisiae; details: up to 2 mM
Method: a-mannosidase activity was measured using substrate p-nitrophenyl α-mannopyranoside (1 mM). Enzyme from Jack Bean ([…]) (final concentration of 0.077 U) was incubated at 37° C. in a final volume of 50 μl of 50 mM potassium phosphate buffer, pH 7.5. α-glucosidase was assayed with substrate p-nitrophenyl α-glucoside (7 mM). Enzyme from Saccharomyces cerevisiae-type 1 (Sigma, G5003) (final concentration of 0.1 U) was incubated at 37° C. in a final volume of 50 μl of PBS, pH 7.5. β-Glucosidase was assayed with substrate 4-nitrophenyl β-D-glucopyranoside (Roche). Enzyme from almond (Sigma, G0395) (final concentration of 0.002 U) was incubated at 37° C. in a final volume of 50 μl of PBS, pH 7.5 containing 1% SDS. The incubation was stopped by addition of an equal volume of acid-based stop solution (R&D systems, 895032). Enzymatic activity was measured at 405 nm. α-glucosidase from Saccharomyces cerevisiae type I ([…]) with p-nitrophenyl α-D-glucopyranoside (Sigma, N1377) as the substrate.

[1] = system: αv integrin, Neuropilin-1, VE-cadherin and bFGFR1; experiment: Protein mass of other N-glycosylated proteins in BCEC; assay type: cell-based, bovine
Method: Cells were allowed to reach 80% confluency in 12-well plates. […] At various time points, plates were taken out of the incubator and kept on ice. Cell monolayers were first washed once with ice-cold PBS before lysis with 250 μl of Pierce RIPA buffer (ThermoFisher Scientific, Rockford, IL) or use 50 mM Tris-HCl (pH 7.6), 150 mM NaCl, 10% Glycerol, 1% NP-40 containing protease/Phosphatase inhibitor cocktail (100×) (Cell signaling, #5872). Lysates were collected and mixed with 4×Bolt LDS Sample Buffer (Novex, Carlsbad, CA) in the presence of Halt protease inhibitors and phosphatase inhibitor cocktail (ThermoFisher scientific, #NP0007). The samples were subjected to SDS-PAGE (Bolt 4-12% Bis-Tris Plus, Invitrogen) using Bolt MES SDS running buffer or NuPAGE 3-8% Tris-Acetate gel using Tris-Acetate SDS running buffer (Novex). HUVECs (passage 6-8) were plated in EBM-2 basal medium (Lonza) with 0.2% FBS. […] Equal amounts of protein lysates were analyzed by SDS-PAGE and blotted with the indicated antibodies. Proteins were transferred using Tris-Glycine buffer with 20% Methanol (Proteonomics grade) (Apex BioResearch Products). Membranes were first incubated with 5% milk in TBST, pH 7.6 (TEKnova, Hollister, CA), followed by blotting with primary and secondary antibodies. […]

## N[C@H](C=O)[C@@H](O)[C@H](O)[C@H](O)CO [ManN, 2-Amino-2-deoxy-D-mannose]
A673
  growth of A673: did not promote growth
α-glucosidase
  effect on α-glucosidase: No effect
[1]
  protein mass of other N-glycosylated receptors/adhesion molecules: affected as well
